Among the data in ChEMBL document CHEMBL1201862, “PubChem BioAssay data set” (2004) are IC50, EC50 and CC50 values, retold here.

Structures are written as SMILES. Activity calls are given as the source filed them.

For assay [1], the target named is Glucose-6-phosphate 1-dehydrogenase (Homo sapiens, UniProt P11413). Kind of assay: human G6PD enzyme inhibitors, dose response, selectivity assay for P. falciparum G6PD inhibitor project, biochemical, fluorescence (AID 504792). It is filed as functional.
Sequence of Glucose-6-phosphate 1-dehydrogenase (P11413 whole entry): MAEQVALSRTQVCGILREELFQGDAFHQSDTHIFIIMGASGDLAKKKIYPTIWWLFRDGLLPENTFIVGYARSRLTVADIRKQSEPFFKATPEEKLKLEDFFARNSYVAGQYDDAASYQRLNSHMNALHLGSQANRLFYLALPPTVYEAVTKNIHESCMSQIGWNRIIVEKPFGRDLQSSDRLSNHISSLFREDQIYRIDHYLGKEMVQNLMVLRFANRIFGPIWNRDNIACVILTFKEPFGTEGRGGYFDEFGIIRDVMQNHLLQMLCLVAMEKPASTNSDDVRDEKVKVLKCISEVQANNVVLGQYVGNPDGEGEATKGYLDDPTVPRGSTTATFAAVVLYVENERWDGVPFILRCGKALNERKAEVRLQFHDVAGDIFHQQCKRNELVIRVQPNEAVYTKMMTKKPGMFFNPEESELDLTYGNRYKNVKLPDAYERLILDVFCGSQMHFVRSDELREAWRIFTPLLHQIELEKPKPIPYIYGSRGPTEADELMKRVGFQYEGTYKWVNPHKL
Assay [2] deals with 5-hydroxytryptamine receptor 5A (Homo sapiens, UniProt P47898). Kind of assay: Counterscreen for agonists of OPRM1-OPRD1 heterodimerization: luminescence-based cell-based high throughput dose response assay to identify agonists of 5-hydroxytryptamine (serotonin) 5A receptor (HTR5A). [Related pubchem assays (depositor defined):AID504326, AID504355, AID504692, AID504904, AID504905]. It is filed as functional.
Sequence of 5-hydroxytryptamine receptor 5A (P47898 whole entry): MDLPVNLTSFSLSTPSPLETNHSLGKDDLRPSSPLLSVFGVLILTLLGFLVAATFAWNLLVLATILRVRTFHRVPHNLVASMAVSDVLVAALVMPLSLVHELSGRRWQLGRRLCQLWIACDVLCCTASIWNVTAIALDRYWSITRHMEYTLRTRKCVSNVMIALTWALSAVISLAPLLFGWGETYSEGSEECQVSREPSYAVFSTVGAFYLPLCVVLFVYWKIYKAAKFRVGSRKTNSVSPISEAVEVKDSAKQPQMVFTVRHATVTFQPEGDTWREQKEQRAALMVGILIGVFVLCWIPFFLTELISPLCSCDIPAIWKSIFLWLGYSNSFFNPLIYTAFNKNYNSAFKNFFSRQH

In assay [3] the target is Delta-type opioid receptor (Homo sapiens, UniProt P41143). Kind of assay: Counterscreen for agonists of heterodimerization of the mu 1 (OPRM1) and delta 1 (OPRD1) opioid receptors: Luminescence-based cell-based high throughput dose response assay to identify agonists of OPRD1 homodimerization. [Related pubchem assays (depositor defined):AID504326, AID504355, AID504692, AID504904, AID504905]. The format is functional. On the technique in general: A counterscreen serves to expose hits that act by an unwanted route or on another target.
Sequence of Delta-type opioid receptor (P41143 whole entry): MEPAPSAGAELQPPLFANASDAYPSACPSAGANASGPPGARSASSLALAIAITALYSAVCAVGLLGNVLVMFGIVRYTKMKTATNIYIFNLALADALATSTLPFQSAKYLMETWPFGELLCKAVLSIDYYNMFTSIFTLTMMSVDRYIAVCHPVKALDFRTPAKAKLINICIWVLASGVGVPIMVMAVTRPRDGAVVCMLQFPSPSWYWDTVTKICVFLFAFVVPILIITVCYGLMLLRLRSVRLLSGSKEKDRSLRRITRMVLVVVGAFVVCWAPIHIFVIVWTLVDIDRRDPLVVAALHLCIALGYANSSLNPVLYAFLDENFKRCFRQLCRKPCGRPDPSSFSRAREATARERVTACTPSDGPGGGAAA

The target in the next assay is Mu-type opioid receptor (Homo sapiens, UniProt P35372). In words: Counterscreen for agonists of heterodimerization of the mu 1 (OPRM1) and delta 1 (OPRD1) opioid receptors: Luminescence-based cell-based high throughput dose response assay to identify agonists of OPRM1 homodimerization. It is filed as functional.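 Also: U2OS cells expressing OPRM1 and beta-arrestin as split beta-galactosidase partners.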
Sequence of Mu-type opioid receptor (P35372 whole entry): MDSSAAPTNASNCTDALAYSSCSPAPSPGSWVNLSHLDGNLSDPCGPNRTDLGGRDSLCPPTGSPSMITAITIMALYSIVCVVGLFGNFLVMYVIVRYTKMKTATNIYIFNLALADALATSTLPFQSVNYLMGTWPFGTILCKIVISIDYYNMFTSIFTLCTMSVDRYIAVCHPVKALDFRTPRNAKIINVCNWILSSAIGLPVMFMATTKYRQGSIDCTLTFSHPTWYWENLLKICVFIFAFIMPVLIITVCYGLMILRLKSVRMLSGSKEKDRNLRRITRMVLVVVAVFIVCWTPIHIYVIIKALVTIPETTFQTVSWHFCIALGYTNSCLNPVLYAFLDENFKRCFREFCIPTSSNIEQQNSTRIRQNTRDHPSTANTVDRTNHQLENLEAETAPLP
A further assay concerns H4. In words: Luminescence Cell-Based Dose Response HTS to Identify Activators of 5'UTR Stem-Loop Driven Prion Protein mRNA Translation in H4 Neuroglioblastoma Cells. [Related pubchem assays: 1829 (Project Summary), 1814 (Primary HTS)]. It is filed as functional. Conditions: Homo sapiens.
Assay [4] concerns the target T1, Heat shock factor protein 1 (Mus musculus, UniProt P38532).
T1 sequence (P38532 whole entry): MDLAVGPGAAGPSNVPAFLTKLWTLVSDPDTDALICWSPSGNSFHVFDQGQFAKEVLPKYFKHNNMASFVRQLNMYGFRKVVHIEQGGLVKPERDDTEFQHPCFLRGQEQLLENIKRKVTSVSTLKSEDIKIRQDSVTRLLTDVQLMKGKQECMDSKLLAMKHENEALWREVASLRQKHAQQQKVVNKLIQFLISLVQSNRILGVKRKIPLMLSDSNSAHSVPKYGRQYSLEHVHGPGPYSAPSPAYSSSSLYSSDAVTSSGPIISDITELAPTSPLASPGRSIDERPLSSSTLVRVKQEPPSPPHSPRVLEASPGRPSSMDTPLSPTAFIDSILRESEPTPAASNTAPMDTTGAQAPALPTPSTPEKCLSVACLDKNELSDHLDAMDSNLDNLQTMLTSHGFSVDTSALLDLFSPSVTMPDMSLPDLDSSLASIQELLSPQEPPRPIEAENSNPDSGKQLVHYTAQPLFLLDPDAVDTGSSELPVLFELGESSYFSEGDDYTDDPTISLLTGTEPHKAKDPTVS
In words: inhibition of MG132-induced HSE-luciferase signal, confirmation, cell-based, NIH3T3, luminescence, dose retest (AID 2382).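 Also: NIH3T3 fibroblasts with HSF1-driven luciferase reporter stressed by proteasome inhibitor MG132; luminescence from HSF1-driven luciferase expression after 8 hours of MG132 stress.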 The format is functional.

The target in assay [5] is T2, Mannose-6-phosphate isomerase (Homo sapiens, UniProt P34949).
T2 sequence (P34949 whole entry): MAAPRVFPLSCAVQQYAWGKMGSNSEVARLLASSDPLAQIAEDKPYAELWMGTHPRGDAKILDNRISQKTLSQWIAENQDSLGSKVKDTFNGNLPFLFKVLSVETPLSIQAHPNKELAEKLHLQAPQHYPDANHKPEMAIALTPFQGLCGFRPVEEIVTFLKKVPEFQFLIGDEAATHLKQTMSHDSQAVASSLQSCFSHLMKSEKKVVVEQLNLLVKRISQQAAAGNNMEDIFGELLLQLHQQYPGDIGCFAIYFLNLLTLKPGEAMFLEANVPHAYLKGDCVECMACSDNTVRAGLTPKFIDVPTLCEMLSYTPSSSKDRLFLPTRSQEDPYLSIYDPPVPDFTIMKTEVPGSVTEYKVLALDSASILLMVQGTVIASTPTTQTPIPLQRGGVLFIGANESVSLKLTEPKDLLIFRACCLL
Kind of assay: human PMI inhibitors, high substrate, primary screen, biochemical, fluorescence intensity, high mannose 6-phosphate (AID 1220).

For a further assay, the target named is T3, Protein Tat (Human immunodeficiency virus type 1 group M subtype B (isolate HXB2)(HIV-1), UniProt P04608).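 Also: tat binding to TAR RNA read out by fluorescence polarization.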
T3 sequence (P04608 whole entry): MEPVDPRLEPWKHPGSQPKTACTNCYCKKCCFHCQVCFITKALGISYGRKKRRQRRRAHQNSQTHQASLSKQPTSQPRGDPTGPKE
The format is functional.

The nature of assay [6]: THP-1 cell cytotoxicity, dose response, cytotoxicity control for Vif-APOBEC3G degradation inhibitor project, THP-1 cells (AID 1117359). It is filed as functional. Particulars: Human immunodeficiency virus 1, THP-1.
In assay [7] the target is T4, Tyrosine-protein phosphatase non-receptor type 22 (Homo sapiens, UniProt Q9Y2R2).
T4 sequence (Q9Y2R2 whole entry): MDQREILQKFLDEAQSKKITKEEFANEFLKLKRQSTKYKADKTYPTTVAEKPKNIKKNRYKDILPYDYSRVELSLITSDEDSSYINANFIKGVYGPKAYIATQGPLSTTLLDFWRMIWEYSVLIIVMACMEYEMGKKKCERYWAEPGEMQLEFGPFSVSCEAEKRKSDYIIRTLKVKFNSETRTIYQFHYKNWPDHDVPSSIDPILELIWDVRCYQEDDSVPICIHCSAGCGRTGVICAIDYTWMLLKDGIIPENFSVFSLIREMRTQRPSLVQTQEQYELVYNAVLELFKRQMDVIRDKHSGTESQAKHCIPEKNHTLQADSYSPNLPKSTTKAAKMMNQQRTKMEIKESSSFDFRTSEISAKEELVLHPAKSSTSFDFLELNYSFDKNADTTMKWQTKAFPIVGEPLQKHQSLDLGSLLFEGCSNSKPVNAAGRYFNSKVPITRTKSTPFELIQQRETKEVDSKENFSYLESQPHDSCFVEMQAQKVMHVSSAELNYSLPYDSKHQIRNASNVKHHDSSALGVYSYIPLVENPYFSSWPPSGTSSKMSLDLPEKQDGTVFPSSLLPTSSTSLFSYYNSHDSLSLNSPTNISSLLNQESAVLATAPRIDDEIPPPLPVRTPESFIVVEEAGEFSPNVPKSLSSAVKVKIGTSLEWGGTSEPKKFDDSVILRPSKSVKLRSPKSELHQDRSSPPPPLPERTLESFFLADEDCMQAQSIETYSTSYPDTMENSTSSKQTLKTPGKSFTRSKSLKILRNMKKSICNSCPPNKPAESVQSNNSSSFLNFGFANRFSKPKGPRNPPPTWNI
The format is functional.

Assay [8] relates to BJ. In words: cytotoxicity toward BJ-TERT-LT-ST fibroblasts, dose response, cell-based, RAS-independent, luminescence (AID 1935).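 Also: BJ fibroblasts immortalized with TERT plus LT and ST oncogenes.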 It is filed as functional. Conditions: Homo sapiens.
Assay [9] can be described thus: cytotoxicity toward DRD oncogenic fibroblasts, dose response, cell-based, non-viral oncogenic, luminescence (AID 1934). Conditions: Homo sapiens. It is filed as functional.
Assay [10] deals with BJ. In words: cytotoxicity toward BJ-TERT fibroblasts, dose response, cell-based, RAS-independent, luminescence (AID 1933). Conditions: Homo sapiens. The format is functional.
The target in assay [11] is T5, Tyrosine-protein phosphatase non-receptor type 7 (Homo sapiens, UniProt P35236).
T5 sequence (P35236 whole entry): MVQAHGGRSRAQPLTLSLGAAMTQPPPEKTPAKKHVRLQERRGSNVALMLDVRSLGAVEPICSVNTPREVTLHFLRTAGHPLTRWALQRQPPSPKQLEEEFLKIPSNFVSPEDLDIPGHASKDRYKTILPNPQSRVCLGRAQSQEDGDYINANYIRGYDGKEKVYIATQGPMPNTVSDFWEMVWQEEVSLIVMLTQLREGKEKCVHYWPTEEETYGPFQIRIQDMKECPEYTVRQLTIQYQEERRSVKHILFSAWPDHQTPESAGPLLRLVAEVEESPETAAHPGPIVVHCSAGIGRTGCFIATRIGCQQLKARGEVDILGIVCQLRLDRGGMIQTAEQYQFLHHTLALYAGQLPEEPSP
The format is functional.

For assay [12], the target named is T4, Tyrosine-protein phosphatase non-receptor type 22. It is filed as functional. The source holds these as a separate data set.
Assay [13] concerns Streptococcus sp. 'group A'. In words: growth inhibition of control SK(-) GAS strain, dose response, counter-screen for streptokinase expression inhibitor project, luminescence, kanamycin, BacTiterGlo, confirmation (AID 1900). It is filed as functional, organism-based.
In another assay the test system is Vero. In words: cells. The format is functional. Particulars: Chlorocebus sabaeus.
Another assay addresses T6, Streptokinase A (Streptococcus pyogenes serotype M1, UniProt P10520).
T6 sequence (P10520 whole entry): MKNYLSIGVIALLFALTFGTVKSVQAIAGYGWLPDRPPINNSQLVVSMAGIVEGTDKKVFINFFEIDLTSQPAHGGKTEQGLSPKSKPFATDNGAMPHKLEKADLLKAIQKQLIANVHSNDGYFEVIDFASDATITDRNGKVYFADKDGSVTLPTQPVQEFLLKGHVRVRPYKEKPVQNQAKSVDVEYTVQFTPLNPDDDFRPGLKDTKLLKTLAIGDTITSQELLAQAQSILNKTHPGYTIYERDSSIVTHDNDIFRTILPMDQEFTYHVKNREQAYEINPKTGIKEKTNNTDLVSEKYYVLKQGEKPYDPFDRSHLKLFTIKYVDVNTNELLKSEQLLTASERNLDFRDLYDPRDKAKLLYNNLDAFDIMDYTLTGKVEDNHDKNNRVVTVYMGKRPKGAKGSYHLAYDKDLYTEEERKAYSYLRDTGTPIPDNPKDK
Kind of assay: S. pyogenes streptokinase expression inhibitors, potency, dose response, plasminogen activation absorbance, OD405 (AID 1914).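 Also: secreted streptokinase activity via plasminogen activation per viability signal from cell pellet.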 The format is functional, Streptococcus pyogenes M1 GAS.

Assay [14] relates to BJ. Kind of assay: cells. Particulars: Homo sapiens. It is filed as functional, cell-based.
The subject of another assay is Streptococcus. Kind of assay: Group A Streptococcus viability loss, dose response, counter-screen for streptokinase expression inhibitor project, luminescence, BacTiterGlo (AID 1915).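 Also: potency for reduction of bacterial viability or growth.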 The format is functional, organism-based.

For the molecule `O=C(COC(=O)c1cnccn1)c1ccc([N+](=O)[O-])cc1`, the IC50 in assay [1] is > 80 µM (inactive).
As to `Cc1cc(/C=C2/C(=O)NN(c3ccccc3)C2=O)c(C)n1-c1ccc(O)cc1`, the EC50 was > 92.5 µM (inactive) in assay [2]; 9.3 µM (active) in assay [3]; > 92.5 µM (inactive) on Mu-type opioid receptor; < 0.1 µM (active) with H4; 4.81 µM (active) in assay [4].
With `COc1ccc(CN(C)S(=O)(=O)c2nnc(NC(=O)c3cccc(C)c3)s2)cc1OC`, the IC50 in [1] was 61.2 µM (inactive).
For `CCOc1ccc(CNc2ccc(N3CCCC3)cc2)cc1`, the values for the half-maximal inhibitory concentration (IC50) (in [5]; on Protein Tat; in assay [1]) were > 50 µM (not active), 75.3 µM (inconclusive) and > 80 µM (inactive), respectively. In addition, in assay [6], the cytotoxic concentration (CC50) was > 40 µM (active).
On to `CC1[C@H]2Cc3ccc(O)cc3[C@]1(C)CCN2C` (stereo not given in full), for which the EC50 (in assay [2]; in assay [3]; at Mu-type opioid receptor) was > 92.4 µM (inactive) throughout.
Take `O=C(N/N=C/c1ccccn1)c1ccc(Cl)c(Cl)c1`: the IC50 in assay [7], in assay [11] and in assay [12] was > 79.4 µM (inactive) throughout. Further, the EC50 in the assay on BJ [8] is > 150 µM (not active); in [9], > 150 µM (not active); in the assay on BJ [10], 21.6 µM (active); in [13], 6.21 µM (active); on Streptokinase A, > 150 µM (not active); in the assay with BJ [14] it was > 150 µM (not active). For the same molecule, in the assay on Streptococcus, the EC50 was 22.9 µM (active). For the same molecule, the CC50 with Vero is > 25 µM (active).

What is called IC50 is the point on the concentration scale where inhibition reaches its midpoint. Broadly, the EC50 is the concentration giving half of the maximal effect. The CC50 is the concentration at which the toxic effect on the cells reaches its halfway point.
